From PubChem BioAssay AID2060626 (Molecular Pharmacology Branch, DTP, NCI, 2025)

Tested on: 168753-222-R-J1-PDC complex spheroid viability
Experiment: Anticancer human tumor 168753-222-R-J1-PDC patient-derived bladder carcinoma cell line growth inhibition [CLK]
Settings: for IC50: curve of first compound; for viability, T/C: stronger effect = lower value
Procedure, shortened: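 Patient-derived tumor cells grown as complex spheroids with HUVEC endothelial cells and mesenchymal stem cells, treated with drug combinations. Concentrations descend in half-log steps from near clinical Cmax, or from 10 microM if Cmax unknown.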

[1] = second compound 0.0316 µM, first compound 0.0316 µM
[2] = second compound 0.0316 µM, first compound 0.1 µM
[3] = second compound 0.0316 µM, first compound 0.316 µM
[4] = second compound 0.0316 µM, first compound 1 µM
[5] = second compound 0.1 µM, first compound 0.0316 µM
[6] = second compound 0.1 µM, first compound 0.1 µM
[7] = second compound 0.1 µM, first compound 0.316 µM
[8] = second compound 0.1 µM, first compound 1 µM
[9] = second compound 0.316 µM, first compound 0.0316 µM
[10] = second compound 0.316 µM, first compound 0.1 µM
[11] = second compound 0.316 µM, first compound 0.316 µM
[12] = second compound 0.316 µM, first compound 1 µM
[13] = second compound 1 µM, first compound 0.0316 µM
[14] = second compound 1 µM, first compound 0.1 µM
[15] = second compound 1 µM, first compound 0.316 µM
[16] = second compound 1 µM, first compound 1 µM
[17] = second compound 3.16 µM, first compound 0.0316 µM
[18] = second compound 3.16 µM, first compound 0.1 µM
[19] = second compound 3.16 µM, first compound 0.316 µM
[20] = second compound 3.16 µM, first compound 1 µM
[21] = second compound 10 µM, first compound 0.0316 µM
[22] = second compound 10 µM, first compound 0.1 µM
[23] = second compound 10 µM, first compound 0.316 µM
[24] = second compound 10 µM, first compound 1 µM
[25] = second compound 0.0316 µM, first compound 0.00316 µM
[26] = second compound 0.0316 µM, first compound 0.01 µM
[27] = second compound 0.1 µM, first compound 0.00316 µM
[28] = second compound 0.1 µM, first compound 0.01 µM
[29] = second compound 0.316 µM, first compound 0.00316 µM
[30] = second compound 0.316 µM, first compound 0.01 µM
[31] = second compound 1 µM, first compound 0.00316 µM
[32] = second compound 1 µM, first compound 0.01 µM
[33] = second compound 3.16 µM, first compound 0.00316 µM
[34] = second compound 3.16 µM, first compound 0.01 µM
[35] = second compound 10 µM, first compound 0.00316 µM
[36] = second compound 10 µM, first compound 0.01 µM
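Further: viability measured after seven days of drug exposure.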
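Wherever viability, T/C is given: luminescence signal used as surrogate for viable cell amount; 100% = DMSO vehicle control wells.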

`CC(Nc1ccc2c(c1)OCCn1cc(N3C(=O)OCC3C(F)F)nc1-2)C(N)=O` (stereo unspecified) + CNC(=O)c1ccc(Nc2nc(OC3CCCC3)c3c(-c4ccc5nc(C)oc5c4)c[nH]c3n2)c(OC)c1 gave an IC50 (second compound 0.0316 µM) of 161 nM, an IC50 (second compound 0.1 µM) of 133 nM and an IC50 (second compound 0.316 µM) of 45.8 nM. For the same compound, the IC50 (second compound 1 µM) was < 31.6 nM, the IC50 (second compound 3.16 µM) was < 31.6 nM and the IC50 (second compound 10 µM) was < 31.6 nM. For the same compound, the viability, T/C [1] was 93.1%, the viability, T/C [2] was 71% and the viability, T/C [3] was 20.2%. For the same compound, the viability, T/C [4] was 15.5%, the viability, T/C (second compound 0.0316 µM, first compound 3.16 µM) was 13.3% and the viability, T/C (second compound 0.0316 µM, first compound 10 µM) was 13%. It also gave a viability, T/C [5] of 83.7%, a viability, T/C [6] of 60.5% and a viability, T/C [7] of 18.3%. It also gave a viability, T/C [8] of 14.3%, a viability, T/C (second compound 0.1 µM, first compound 3.16 µM) of 13.5% and a viability, T/C (second compound 0.1 µM, first compound 10 µM) of 11.6%. It also gave a viability, T/C [9] of 62.5%, a viability, T/C [10] of 23.5% and a viability, T/C [11] of 15%. It also gave a viability, T/C [12] of 9.68%, a viability, T/C (second compound 0.316 µM, first compound 3.16 µM) of 9.36% and a viability, T/C (second compound 0.316 µM, first compound 10 µM) of 9.19%. The viability, T/C [13] was 24.3%, the viability, T/C [14] was 13.5% and the viability, T/C [15] was 6.89%. It also gave a viability, T/C [16] of 2.64%, a viability, T/C (second compound 1 µM, first compound 3.16 µM) of 1.07% and a viability, T/C (second compound 1 µM, first compound 10 µM) of 2.28%. For the same compound, the viability, T/C [17] was 14.9%, the viability, T/C [18] was 10.1% and the viability, T/C [19] was 3.74%. For the same compound, the viability, T/C [20] was 0.82%, the viability, T/C (second compound 3.16 µM, first compound 3.16 µM) was 1.82% and the viability, T/C (second compound 3.16 µM, first compound 10 µM) was 3.99%. The viability, T/C [21] was 12.8%, the viability, T/C [22] was 9.3% and the viability, T/C [23] was 3.4%. The viability, T/C [24] was 0.76%, the viability, T/C (second compound 10 µM, first compound 3.16 µM) was 0.78% and the viability, T/C (second compound 10 µM, first compound 10 µM) was 1.14%.
In the case of `CCN1CCN(Cc2ccc(Nc3ncc(F)c(-c4cc(F)c5nc(C)n(C(C)C)c5c4)n3)nc2)CC1` + CNC(=O)c1ccc(Nc2nc(OC3CCCC3)c3c(-c4ccc5nc(C)oc5c4)c[nH]c3n2)c(OC)c1, the IC50 (second compound 0.0316 µM) is reported as > 1000 nM, the IC50 (second compound 0.1 µM) is reported as > 1000 nM and the IC50 (second compound 0.316 µM) is reported as 85.5 nM. The IC50 (second compound 1 µM) was < 3.16 nM, the IC50 (second compound 3.16 µM) was < 3.16 nM and the IC50 (second compound 10 µM) was < 3.16 nM. For the same compound, the viability, T/C [25] was 103%, the viability, T/C [26] was 104% and the viability, T/C [1] was 79.3%. It also gave a viability, T/C [2] of 77%, a viability, T/C [3] of 65.5% and a viability, T/C [4] of 67.1%. The viability, T/C [27] was 92.9%, the viability, T/C [28] was 88.5% and the viability, T/C [5] was 78.8%. For the same compound, the viability, T/C [6] was 70.1%, the viability, T/C [7] was 70.4% and the viability, T/C [8] was 55.7%. It also gave a viability, T/C [29] of 83.6%, a viability, T/C [30] of 77% and a viability, T/C [9] of 67.2%. It also gave a viability, T/C [10] of 46.3%, a viability, T/C [11] of 43% and a viability, T/C [12] of 44.6%. For the same compound, the viability, T/C [31] was 25.2%, the viability, T/C [32] was 46.9% and the viability, T/C [13] was 25.2%. For the same compound, the viability, T/C [14] was 22.5%, the viability, T/C [15] was 19.4% and the viability, T/C [16] was 26.4%. For the same compound, the viability, T/C [33] was 26.3%, the viability, T/C [34] was 20.9% and the viability, T/C [17] was 18.8%. The viability, T/C [18] was 15.4%, the viability, T/C [19] was 17% and the viability, T/C [20] was 17.7%. It also gave a viability, T/C [35] of 17.4%, a viability, T/C [36] of 19.6% and a viability, T/C [21] of 17.4%. The viability, T/C [22] was 14.6%, the viability, T/C [23] was 15.1% and the viability, T/C [24] was 18.2%.
`COc1c(OCCCN2CCOCC2)ccc2c3n(c(=NC(=O)c4cnc(N)nc4)nc12)CCN3` + CNC(=O)c1ccc(Nc2nc(OC3CCCC3)c3c(-c4ccc5nc(C)oc5c4)c[nH]c3n2)c(OC)c1 was tested, and the IC50 (second compound 0.0316 µM) was 12 nM, the IC50 (second compound 0.1 µM) was 13.1 nM and the IC50 (second compound 0.316 µM) was 5.16 nM. The IC50 (second compound 1 µM) was < 3.16 nM, the IC50 (second compound 3.16 µM) was < 3.16 nM and the IC50 (second compound 10 µM) was < 3.16 nM. For the same compound, the viability, T/C [25] was 96.5%, the viability, T/C [26] was 56.4% and the viability, T/C [1] was 17.8%. It also gave a viability, T/C [2] of 13.7%, a viability, T/C [3] of 8.52% and a viability, T/C [4] of 1.96%. The viability, T/C [27] was 87.3%, the viability, T/C [28] was 60.8% and the viability, T/C [5] was 14.7%. For the same compound, the viability, T/C [6] was 11.1%, the viability, T/C [7] was 7.84% and the viability, T/C [8] was 1.03%. It also gave a viability, T/C [29] of 67.3%, a viability, T/C [30] of 25.6% and a viability, T/C [9] of 12.7%. For the same compound, the viability, T/C [10] was 7.32%, the viability, T/C [11] was 4.55% and the viability, T/C [12] was 0.36%. The viability, T/C [31] was 25%, the viability, T/C [32] was 16.4% and the viability, T/C [13] was 3.59%. It also gave a viability, T/C [14] of 0.43%, a viability, T/C [15] of 0.26% and a viability, T/C [16] of 1.09%. The viability, T/C [33] was 14.6%, the viability, T/C [34] was 12.3% and the viability, T/C [17] was 2.46%. For the same compound, the viability, T/C [18] was 0.34%, the viability, T/C [19] was 2.13% and the viability, T/C [20] was 1.79%. The viability, T/C [35] was 12.6%, the viability, T/C [36] was 10.4% and the viability, T/C [21] was 3.75%. The viability, T/C [22] was 2.46%, the viability, T/C [23] was 0.34% and the viability, T/C [24] was 3.45%.
